According to ChEMBL document CHEMBL2203037, “Synthesis and Anti-influenza A Virus Activity of 2,2-Dialkylamantadines and Related Compounds” (ACS Med Chem Lett, 2012):
Calls of active or inactive are those of the source. The calls are words filed in the database; no cut-off is given here.

Columns and labels:
[1] = Cytotoxicity against dog MDCK cells assessed as cell viability after 72 hrs by MTS assay; type: cell-based, Canis lupus familiaris
[2] = Cytotoxicity against dog MDCK cells assessed as cell morphology alterations; type: cell-based, Canis lupus familiaris
[3] = system: Mammalian orthoreovirus 1; test: Antiviral activity against Reovirus-1 by cell based assay; type: functional, organism-based
Coxsackievirus B4 = test: Antiviral activity against Coxsackievirus B4 by cell based assay; type: functional, organism-based
Punta Toro virus = test: Antiviral activity against Punta Toro virus by cell based assay; type: functional, organism-based
Sindbis virus = test: Antiviral activity against Sindbis virus by cell based assay; type: functional, organism-based
[4] = system: Vesicular stomatitis virus; test: Antiviral activity against Vesicular stomatitis virus by cell based assay; type: functional, organism-based
Human respirovirus 3 = test: Antiviral activity against Parainfluenza-3 virus by cell based assay; type: functional, organism-based
[5] = system: Respiratory syncytial virus; test: Antiviral activity against Respiratory syncytial virus by cell based assay; type: functional, organism-based
Feline coronavirus = test: Antiviral activity against Feline coronavirus by cell based assay; type: functional, organism-based
Vaccinia virus = test: Antiviral activity against Vaccinia virus by cell based assay; type: functional, organism-based; settings: Orthopoxvirus vaccinia
Simplexvirus = test: Antiviral activity against Herpes simplex virus by cell based assay; type: functional, organism-based
Influenza A virus [6] = test: Antiviral activity against Influenza A virus (A/X-31(H3N2)) infected in MDCK cells assessed as virus-induced cytopathic effect measured 3 days post infection by microscopic analysis; type: functional, organism-based; settings: Influenza A virus, MDCK, 72 h
Influenza A virus [7] = test: Antiviral activity against Influenza A virus (A/Ishikawa/7/82 (H3N2)) infected in MDCK cells assessed as virus-induced cytopathic effect measured 3 days post infection by microscopic analysis; type: functional, organism-based; settings: Influenza A virus, A/Ishikawa/7/82 (H3N2), MDCK, 72 h
Influenza A virus [8] = test: Antiviral activity against amantadine-sensitive Influenza A virus (A/FM/1/47 (H1N1)) infected in MDCK cells assessed as virus-induced cytopathic effect measured 3 days post infection by microscopic analysis; type: functional, organism-based; settings: A/Fort Monmouth/1/1947(H1N1), 72 h
Influenza A virus [9] = test: Antiviral activity against amantadine-sensitive Influenza A virus (A/Ned/378/05 (H1N1)) infected in MDCK cells assessed as virus-induced cytopathic effect measured 3 days post infection by microscopic analysis; type: functional, organism-based; settings: 72 h
H3N2 subtype [10] = test: Antiviral activity against Influenza A virus (A/HK/7/87 (H3N2)) infected in MDCK cells assessed as virus-induced cytopathic effect by MTS assay; type: functional, organism-based, A/Hong Kong/7/1987(H3N2); settings: mdck
H3N2 subtype [11] = test: Antiviral activity against Influenza A virus (A/HK/7/87 (H3N2)) infected in MDCK cells assessed as virus-induced cytopathic effect measured 3 days post infection by microscopic analysis; type: functional, organism-based; settings: A/Hong Kong/7/1987(H3N2), 72 h

## CCC1(CC)C2CC3CC(C2)CC1(NC)C3
[1]
  CC50 at 72 h: > 100 µM
[2]
  MCC: ≥ 100 µM
[3]
  Activity: inactive
Coxsackievirus B4
  Activity: inactive
Punta Toro virus
  Activity: inactive
Sindbis virus
  Activity: inactive
[4]
  Activity: inactive
Human respirovirus 3
  Activity: inactive
[5]
  Activity: inactive
Feline coronavirus
  Activity: inactive
Vaccinia virus
  Activity: inactive
Simplexvirus
  Activity: inactive
Influenza A virus [6]
  EC50: > 100 µM
Influenza A virus [7]
  EC50: > 100 µM
Influenza A virus [8]
  EC50: 9.3 µM
Influenza A virus [9]
  EC50: 8.7 µM
H3N2 subtype [10]
  EC50: > 100 µM
H3N2 subtype [11]
  EC50: > 100 µM

## CCC1(CC)C2CC3CC(C2)CC1(N)C3
[1]
  CC50 at 72 h: > 100 µM
[2]
  MCC: ≥ 100 µM
[3]
  Activity: inactive
Coxsackievirus B4
  Activity: inactive
Punta Toro virus
  Activity: inactive
Sindbis virus
  Activity: inactive
[4]
  Activity: inactive
Human respirovirus 3
  Activity: inactive
[5]
  Activity: inactive
Feline coronavirus
  Activity: inactive
Vaccinia virus
  Activity: inactive
Simplexvirus
  Activity: inactive
Influenza A virus [6]
  EC50: > 100 µM
Influenza A virus [7]
  EC50: > 100 µM
Influenza A virus [8]
  EC50: 7 µM
Influenza A virus [9]
  EC50: 4.7 µM
H3N2 subtype [10]
  EC50: > 100 µM
H3N2 subtype [11]
  EC50: > 100 µM
